From US6660734B1, “Oxazinones having antibacterial activity” (Simon Fraser University, priority 1997, dated 2003)

Assays:
tuberculosis bacilli = details: according to Khomutov; cited from earlier work
[1] = system: glutamate-aspartate transaminase; details: according to Khomutov; cited from earlier work
Micrococcus luteus = test: Filter disc bioassay on agar plates seeded with Micrococcus luteus; assay type: cell-based; details: for ZONE SIZE: M. luteus, overnight 37° C.
Description: Samples were applied to filter discs in the amounts indicated. The discs were applied to agar plates seeded with Micrococcus luteus, and the plates were incubated overnight at 37° C. The results are illustrated in FIG. 5 and summarized in the following Table 1: Samples were assayed as in Example 3, with the results summarized in the following Table 2: […]

For NC1CCONC1=O (racemic) [cyclocanaline, 4-amino-tetrahydro-1,2-oxazin-3-one], the “activity against tuberculosis bacilli” value (tuberculosis bacilli) is given as “exhibits activity against tuberculosis bacilli” and the “inhibition of glutamate-aspartate transaminase” value [1] is given as “known to lnhibit glutamate-aspartate transaminase”.
For O=C(O)CN1OC=C(O)CC1=O [Example 1, 2-Carboxymethyl-5-hydroxy-1,2-oxazin-3-one], the antibacterial activity (Micrococcus luteus; in words, from Tables 1 and 2) was “weak antibacterial activity” and the “antibacterial activity, times less than that of penicillin” value (Micrococcus luteus; relative to penicillin, from Tables 1 and 2) was “at least 1000 times”.
In the case of CC(CN1OC=C(O)CC1=O)C(=O)O (stereo not shown) [Example 2, 2-[2-Carboxypropyl]-5-hydroxy-1,2-oxazin-3-one], the “activity, times the activity of the carboxymethyl product” value (Micrococcus luteus; relative to product of Example 1, from Tables 1 and 2) is reported as “approximately 50 times”.
In the case of CC1=C(C(=O)O)N2C(=O)[C@@H](NC(=O)Cc3ccccc3)[C@H]2SC1 [desacetoxycephalosporin G], the “ZONE SIZE” value (Micrococcus luteus; Table 2, 2.5 micrograms on filter disc) is reported as 2.5 cm.
With CC1(C)S[C@@H]2[C@H](NC(=O)Cc3ccccc3)C(=O)N2[C@H]1C(=O)O [penicillin G] the “ZONE SIZE” value (Micrococcus luteus; Table 1, 0.1 micrograms on filter disc) was 1.6 cm.
